The text below walks through data of US9796716B2, “Selective inhibitors of Tec and Src protein kinase families” (Pharmascience, Inc., priority 2012, dated 2017).

The target in test [1] is recombinant human full-length Bruton Agammaglobulinemia Tyrosine Kinase (Btk) (Homo sapiens (Human), UniProt Q06187). In words: Btk Kinase Inhibition Assay (fluorescence polarization). Type of test: biochemical. To be noted: 10 μM ATP, 250 μM substrate, 60 minutes; Ki calculated from IC50 using the Cheng-Prusoff equation. Here is the method: Kinase Binding Btk Kinase Inhibition Assay
Fluorescence polarization-based kinase assays were performed in 384 well-plate format using histidine tagged recombinant human full-length Bruton Agammaglobulinemia Tyrosine Kinase (Btk) and a modified protocol of the KinEASE™ FP Fluorescein Green Assay supplied from Millipore. Kinase reaction were performed at room temperature for 60 minutes in presence of 250 μM substrate, 10 μM ATP and variable test article concentrations. The reaction was stopped with EDTA/kinase detection reagents and the polarization measured on a Tecan 500 instrument. From the dose-response curve obtained, the IC50 was calculated using Graph Pad Prisms® using a non linear fit curve. The Km for ATP on each enzyme was experimentally determined and the Ki values calculated using the Cheng-Prusoff equation (see: Cheng Y, Prusoff W H. (1973) Relationship between the inhibition constant (K1) and the concentration of inhibitor which causes 50 percent inhibition (I50) of an enzymatic reaction”. Biochem Pharmacol 22 (23): 3099-108).

Test [2] concerns Splenocytes (B cell proliferation stimulated with anti-IgM F(ab′)2). In words: Splenic Cell Proliferation Assay. The format is cell-based. To be noted: Mus musculus, Splenocyte, 72 h, CD1 mouse splenocytes, 2.5 ug/ml anti-IgM F(ab′)2 for 72 h, Cell Titer-Glo; read-out: EC50 (nM), Inhibition of splenic cell proliferation. Here is the method: Splenic Cell Proliferation Assay
Splenocytes were obtained from 6 week old male CD1 mice (Charles River Laboratories Inc.). Mouse spleens were manually disrupted in PBS and filtered using a 70 um cell strainer followed by ammonium chloride red blood cell lysis. Cells were washed, resuspended in Splenocyte Medium (HyClone RPMI supplemented with 10% heat-inactivated FBS, 0.5× non-essential amino acids, 10 mM HEPES, 50 uM beta mercaptoethanol) and incubated at 37° C., 5% CO2 for 2 h to remove adherent cells. Suspension cells were seeded in 96 well plates at 50,000 cells per well and incubated at 37° C., 5% CO2 for 1 h. Splenocytes were pre-treated in triplicate with 10,000 nM curves of Formula 1 compounds for 1 h, followed by stimulation of B cell proliferation with 2.5 ug/ml anti-IgM F(ab′)2 (Jackson ImmunoResearch) for 72 h. Cell proliferation was measured by Cell Titer-Glo Luminescent Assay (Promega). EC50 values (50% proliferation in the presence of compound as compared to vehicle treated controls) were calculated from dose response compound curves using GraphPad Prism Software.
Background: In ATP-based viability assays light output follows the ATP content of the culture.

Sequence of recombinant human full-length Bruton Agammaglobulinemia Tyrosine Kinase (Btk) (Q06187 whole entry): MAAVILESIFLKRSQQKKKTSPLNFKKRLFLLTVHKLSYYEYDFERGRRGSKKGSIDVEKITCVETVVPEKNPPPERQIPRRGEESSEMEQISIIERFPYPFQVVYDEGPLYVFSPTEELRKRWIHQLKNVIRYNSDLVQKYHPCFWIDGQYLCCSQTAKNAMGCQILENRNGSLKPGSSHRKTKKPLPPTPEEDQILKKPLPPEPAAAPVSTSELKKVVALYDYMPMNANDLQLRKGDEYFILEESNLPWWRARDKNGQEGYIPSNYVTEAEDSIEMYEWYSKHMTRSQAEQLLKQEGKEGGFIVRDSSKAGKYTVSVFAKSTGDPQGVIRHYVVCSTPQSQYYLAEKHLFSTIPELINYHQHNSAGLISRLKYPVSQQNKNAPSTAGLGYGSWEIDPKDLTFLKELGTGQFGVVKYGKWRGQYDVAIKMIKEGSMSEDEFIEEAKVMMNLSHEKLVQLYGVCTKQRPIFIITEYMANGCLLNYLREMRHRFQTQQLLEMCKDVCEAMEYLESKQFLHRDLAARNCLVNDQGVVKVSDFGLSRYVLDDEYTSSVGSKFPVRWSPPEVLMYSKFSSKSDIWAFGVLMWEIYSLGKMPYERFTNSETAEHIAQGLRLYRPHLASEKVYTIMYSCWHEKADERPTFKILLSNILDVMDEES

On to `CCCC(=O)N1CCC[C@@H](n2nc(-c3ccc(Oc4cccc(OCc5ccccc5)c4)cc3)c3c(N)ncnc32)C1` [Compound 7], for which the inhibitory constant (Ki) in test [1] is under 100 nM. Further, the EC50 in test [2] lay within 100 to 1000 nM.

Consider `COCCn1cncc1COc1cc(F)cc(Oc2ccc(-c3nn(C4CCOCC4)c4ncnc(N)c34)cc2)c1` [Compound 83], for which the inhibition constant Ki in test [1] was under 100 nM. Also, the EC50 in test [2] was in the range of 100 to 1000 nM.

As to `Cc1ccc(COc2cc(F)cc(Oc3ccc(-c4nn(C5CCOCC5)c5ncnc(N)c45)cc3)c2)c[n+]1[O-]` [Compound 91], the Ki in test [1] was under 100 nM. Moreover, in test [2], the EC50 was under 100 nM.

`Cc1ncc(COc2cc(F)cc(Oc3ccc(-c4nn(C5COC5)c5ncnc(N)c45)cc3)c2)s1` [Compound 113]: the inhibitory constant (Ki) in test [1] is under 100 nM. Further, in test [2], the EC50 was under 100 nM.

Turning to `Cn1cncc1COc1cc(F)cc(Oc2ccc(-c3nn(C4CCCC4)c4ncnc(N)c34)c(F)c2)c1` [Compound 92], the Ki in test [1] was under 100 nM. The EC50 in test [2] is under 100 nM.

In the case of `CC(C)Cn1cncc1COc1cc(F)cc(Oc2ccc(-c3nn(C4CCOCC4)c4ncnc(N)c34)cc2)c1` [Compound 74], in test [1], the inhibition constant (Ki) is under 100 nM. The EC50 in test [2] fell in the range of 100 to 1000 nM.

Take `Nc1ncnc2c1c(-c1ccc(Oc3cccc(OCc4ccccc4)c3)cc1)nn2C1CCOCC1` [Compound 21]: the Ki in test [1] is under 100 nM. Besides, the EC50 in test [2] was under 100 nM.

On to `Cn1cncc1COc1cc(F)cc(Oc2ccc(-c3nn(CC(C)(C)O)c4ncnc(N)c34)cc2)c1` [Compound 112], for which, in test [1], the Ki is under 100 nM. In test [2], the EC50 lay within 100 to 1000 nM.

As for `Nc1ncnc2c1c(-c1ccc(Oc3cccc(COc4ccccc4C(F)(F)F)c3)cc1)nn2C1CCCC1` [Compound 32], the Ki in test [1] was under 100 nM. Besides, in test [2], the EC50 was under 100 nM.

Consider `Cc1ccc(COc2cc(F)cc(Oc3ccc(-c4nn(CC5(C)COC5)c5ncnc(N)c45)cc3)c2)cn1` [Compound 126], for which the Ki in test [1] is under 100 nM. In test [2], the EC50 lay within 100 to 1000 nM.

On to `CC(=O)N1CCC[C@@H](n2nc(-c3ccc(Oc4cccc(OCc5cncs5)c4)cc3)c3c(N)ncnc32)C1` [Compound 27], for which, in test [1], the inhibition constant Ki is under 100 nM. Besides, in test [2], the EC50 was under 100 nM.

Consider `Nc1ncnc2c1c(-c1ccc(Oc3cc(F)cc(OCc4cncn4CCO)c3)cc1)nn2C1CCOCC1` [Compound 99], for which, in test [1], the Ki was under 100 nM. In addition, the EC50 in test [2] lay within 100 to 1000 nM.

Turning to `Nc1ncnc2c1c(-c1ccc(Oc3cccc(COc4ccccc4C(F)(F)F)c3)cc1)nn2C1CCOCC1` [Compound 36], in test [1], the Ki is under 100 nM. Further, the EC50 in test [2] is under 100 nM.

Turning to `Cn1cncc1COc1cc(F)cc(Oc2ccc(-c3nn(CCCO)c4ncnc(N)c34)cc2)c1` [Compound 116], the Ki in test [1] was under 100 nM. For the same compound, the EC50 in test [2] was under 100 nM.

Regarding `Cn1cncc1COc1cc(F)cc(Oc2ccc(-c3nn(CCO)c4ncnc(N)c34)c(F)c2)c1` [Compound 105], the Ki in test [1] is under 100 nM. The EC50 in test [2] is 100 to 1000 nM.

As for `Cc1ccc(COc2cc(F)cc(Oc3ccc(-c4nn(CCCO)c5ncnc(N)c45)cc3)c2)cn1` [Compound 96], the Ki in test [1] is under 100 nM. Further, in test [2], the EC50 is under 100 nM.

As to `CC(=O)N1CCC[C@@H](n2nc(-c3ccc(Oc4cccc(OCc5ccccc5C#N)c4)cc3)c3c(N)ncnc32)C1` [Compound 28], the Ki in test [1] was under 100 nM. Moreover, the EC50 in test [2] is under 100 nM.

For `Cc1ncc(COc2cc(F)cc(Oc3ccc(-c4nn(C5CCOCC5)c5ncnc(N)c45)c(F)c3)c2)s1` [Compound 60], the Ki in test [1] is under 100 nM. For the same compound, the EC50 in test [2] was under 100 nM.

As for `CC(C)(C)OC(=O)N1CCCC(n2nc(-c3ccc(Oc4cccc(OCc5cncs5)c4)cc3)c3c(N)ncnc32)C1` (centres unmarked) [Compound 49], the Ki in test [1] is under 100 nM. Further, the EC50 in test [2] is under 100 nM.

As to `Cc1ncc(COc2cc(F)cc(Oc3ccc(-c4nn(C5CCOCC5)c5ncnc(N)c45)cc3)c2)[nH]1` [Compound 118], the Ki in test [1] was under 100 nM. In test [2], the EC50 fell in the range of 100 to 1000 nM.

Turning to `Cc1ncc(COc2cc(F)cc(Oc3ccc(-c4nn(CCCO)c5ncnc(N)c45)cc3)c2)s1` [Compound 104], the Ki in test [1] is under 100 nM. In test [2], the EC50 is under 100 nM.

Consider `[2H]C([2H])(Oc1cc(F)cc(Oc2ccc(-c3nn(C4CCOCC4)c4ncnc(N)c34)cc2)c1)c1cnc(C)s1` [Compound 64], for which, in test [1], the Ki is under 100 nM. In test [2], the EC50 was under 100 nM.

For `Cc1ncc(COc2cc(F)cc(Oc3ccc(-c4nn(CC(C)(C)O)c5ncnc(N)c45)cc3)c2)n1C` [Compound 121], the Ki in test [1] is under 100 nM. Moreover, in test [2], the EC50 lay within 100 to 1000 nM.

As to `COc1ccc(COc2cccc(Oc3ccc(-c4nn(C5CCCC5)c5ncnc(N)c45)cc3)c2)cc1` [Compound 11], the Ki in test [1] is under 100 nM. Also, in test [2], the EC50 lay in the range of 100 to 1000 nM.

As to `Cn1nc(-c2ccc(Oc3cccc(OCc4cncs4)c3)cc2)c2c(N)ncnc21` [Compound 19], the Ki in test [1] is under 100 nM. Also, the EC50 in test [2] is 100 to 1000 nM.

Regarding `CC(=O)N1CCC[C@@H](n2nc(-c3ccc(Oc4cccc(OCc5ccccc5)c4)cc3)c3c(N)ncnc32)C1` [Compound 6], in test [1], the inhibition constant (Ki) was under 100 nM. Also, in test [2], the EC50 is under 100 nM.

Regarding `[2H]C([2H])(Oc1cc(F)cc(Oc2ccc(-c3nn(C4CCOCC4)c4ncnc(N)c34)cc2)c1)c1ccc(C)nc1` [Compound 94], the EC50 in test [2] was under 100 nM.

In the case of `Cc1ncc(COc2cc(F)cc(Oc3ccc(-c4nn(C(C)(C)C)c5ncnc(N)c45)cc3)c2)s1` [Compound 127], the Ki in test [1] was under 100 nM. In addition, the EC50 in test [2] was under 100 nM.

For `Nc1ncnc2c1c(-c1ccc(Oc3cc(F)cc(OCc4ccc(CO)nc4)c3)cc1)nn2C1CCOCC1` [Compound 101], the Ki in test [1] is under 100 nM. Besides, the EC50 in test [2] is under 100 nM.

`Cc1ncc(COc2cc(F)cc(Oc3ccc(-c4nn(C(CO)CO)c5ncnc(N)c45)cc3)c2)cn1` [Compound 130]: the Ki in test [1] was under 100 nM. In addition, the EC50 in test [2] is 100 to 1000 nM.

Regarding `Nc1ncnc2c1c(-c1ccc(Oc3cccc(COc4ccccc4)c3)cc1)nn2C1CCCC1` [Compound 13], the Ki in test [1] is under 100 nM. Further, the EC50 in test [2] is under 100 nM.

As to `Cc1ncc(COc2cc(F)cc(Oc3ccc(-c4nn(CCN5CCCC5)c5ncnc(N)c45)cc3)c2)s1` [Compound 57], the inhibition constant (Ki) in test [1] is under 100 nM. For the same compound, the EC50 in test [2] was in the range of 100 to 1000 nM.

Regarding `CC(=O)N1CCC[C@@H](n2nc(-c3ccc(Oc4cccc(COc5ccccc5C#N)c4)cc3)c3c(N)ncnc32)C1` [Compound 25], the inhibition constant Ki in test [1] is under 100 nM. For the same compound, the EC50 in test [2] is under 100 nM.

Take `CN1CCN(CCn2nc(-c3ccc(Oc4cccc(OCc5cncs5)c4)cc3)c3c(N)ncnc32)CC1` [Compound 40]: the Ki in test [1] is under 100 nM. The EC50 in test [2] was in the range of 100 to 1000 nM.

Regarding `Nc1ncnc2c1c(-c1ccc(Oc3cc(F)cc(CCc4cccnc4)c3)cc1)nn2C1CCOCC1` [Compound 80], in test [1], the inhibitory constant (Ki) was under 100 nM. For the same compound, in test [2], the EC50 is 100 to 1000 nM.

As for `Cc1ncc(COc2cc(F)cc(Oc3ccc(-c4nn(C)c5ncnc(N)c45)cc3)c2)s1` [Compound 61], the inhibitory constant (Ki) in test [1] is under 100 nM. Further, the EC50 in test [2] was 100 to 1000 nM.

`Cc1ncc(COc2cccc(Oc3ccc(-c4nn(C)c5ncnc(N)c45)cc3)c2)s1` [Compound 18]: the Ki in test [1] is under 100 nM. Moreover, the EC50 in test [2] is under 100 nM.

Consider `Cc1ncc(COc2cc(F)cc(Oc3ccc(-c4nn(C(C)(C)C)c5ncnc(N)c45)cc3)c2)cn1` [Compound 129], for which the Ki in test [1] was under 100 nM. Further, the EC50 in test [2] is under 100 nM.

Turning to `CC(=O)N1CCC[C@@H](n2nc(-c3ccc(Oc4cccc(COc5ccccc5C(F)(F)F)c4)cc3)c3c(N)ncnc32)C1` [Compound 33], the inhibition constant (Ki) in test [1] was under 100 nM. Further, the EC50 in test [2] is under 100 nM.

Regarding `CC(=O)N1CCC(n2nc(-c3ccc(Oc4cccc(OCc5cncs5)c4)cc3)c3c(N)ncnc32)CC1` [Compound 47], the inhibition constant Ki in test [1] was under 100 nM. Further, the EC50 in test [2] was under 100 nM.

Regarding `Nc1ncnc2c1c(-c1ccc(Oc3cccc(OCc4cncs4)c3)cc1)nn2C1CCCNC1` (centres unmarked) [Compound 51], in test [1], the Ki was under 100 nM. In addition, in test [2], the EC50 is under 100 nM.

Regarding `CC(=O)N1CCC[C@@H](n2nc(-c3ccc(Oc4cccc(OCc5ccccc5C(F)(F)F)c4)cc3)c3c(N)ncnc32)C1` [Compound 26], in test [1], the Ki is under 100 nM. Besides, in test [2], the EC50 was under 100 nM.

Consider `CC(=O)n1nc(-c2ccc(Oc3cccc(OCc4ccccc4)c3)cc2)c2c(N)ncnc21` [Compound 45], for which, in test [2], the EC50 is 100 to 1000 nM.

As to `[2H]C([2H])(Oc1cc(F)cc(Oc2ccc(-c3nn(C4CCOCC4)c4ncnc(N)c34)c(F)c2)c1)c1cncn1C` [Compound 89], the EC50 in test [2] was under 100 nM.

In the case of `Cc1ncc(COc2cc(F)cc(Oc3ccc(-c4nn(C[C@@H]5CCCN5)c5ncnc(N)c45)cc3)c2)s1` [Compound 56], the EC50 in test [2] lay within 100 to 1000 nM.

In general, Ki refers to a dissociation constant, usually derived from enzyme kinetics or from competition with a known ligand.
